# Assay results taken from patent US20100298141A1, “SUBSTITUTED PYRIDINE N-OXIDE HERBICIDES” (E. I. DU PONT DE NEMOURS AND COMPANY, priority 2007, published 2010).
# Assays:
# [1] = test system: morningglory; experiment: Test A pre-/postemergence greenhouse test; type: in vivo, Ipomoea spp.; settings: for Plant response rating, Morningglory: 0 to 100 scale where 0 is no effect and 100 is complete control; for Morningglory plant response rating: 0 to 100 scale
# Outline: (§1)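 Pre: directed soil spray on seeded loam/sand. Post: foliar spray, plants 2–10 cm, 1–2 leaf stage, applied concurrently. Vehicle: non-phytotoxic solvent + surfactant. Greenhouse ~10 d; visual injury rating vs untreated controls.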
# [2] = test system: rice; experiment: Test C flooded paddy test; type: in vivo, Oryza sativa; settings: Flood
# Outline: (§2)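 Under a constant 3 cm flood, test compounds went directly into the paddy water. Following 13 to 15 days of greenhouse growth, treated species and controls were compared by eye.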
# [3] = test system: velvetleaf; experiment: Test A pre-/postemergence greenhouse test; type: in vivo, Abutilon theophrasti; settings: for Plant response rating, Velvetleaf: 0 to 100 scale where 0 is no effect and 100 is complete control; for Velvetleaf plant response rating: 0 to 100 scale
# Outline: as §1
# [4] = test system: barnyardgrass; experiment: Test C flooded paddy test; type: in vivo, Echinochloa crus-galli; settings: Flood
# Outline: as §2
# [5] = test system: duck salad; experiment: Test C flooded paddy test; type: in vivo, Heteranthera limosa; settings: Flood
# Outline: as §2
# [6] = test system: redroot pigweed; experiment: Test A pre-/postemergence greenhouse test; type: in vivo, Amaranthus retroflexus; settings: for Plant response rating, Pigweed: 0 to 100 scale where 0 is no effect and 100 is complete control; for Pigweed plant response rating: 0 to 100 scale
# Outline: as §1
# [7] = test system: corn; experiment: Test A pre-/postemergence greenhouse test; type: in vivo, Zea mays; settings: for Plant response rating, Corn: 0 to 100 scale where 0 is no effect and 100 is complete control; for Corn plant response rating: 0 to 100 scale
# Outline: as §1
# [8] = test system: wheat; experiment: Test A pre-/postemergence greenhouse test; type: in vivo, Triticum aestivum; settings: for Plant response rating, Wheat: 0 to 100 scale where 0 is no effect and 100 is complete control; for Wheat plant response rating: 0 to 100 scale
# Outline: as §1
# [9] = test system: umbrella sedge; experiment: Test C flooded paddy test; type: in vivo, Cyperus difformis; settings: Flood
# Outline: as §2
# [10] = test system: crabgrass; experiment: Test A pre-/postemergence greenhouse test; type: in vivo, Digitaria sanguinalis; settings: for Plant response rating, Crabgrass, Large: 0 to 100 scale where 0 is no effect and 100 is complete control; for Crabgrass, Large plant response rating: 0 to 100 scale
# Outline: as §1
# [11] = test system: giant foxtail; experiment: Test A pre-/postemergence greenhouse test; type: in vivo, Setaria faberi; settings: for Plant response rating, Foxtail, Giant: 0 to 100 scale where 0 is no effect and 100 is complete control; for Foxtail, Giant plant response rating: 0 to 100 scale
# Outline: as §1
# [12] = test system: barnyardgrass; experiment: Test A pre-/postemergence greenhouse test; type: in vivo, Echinochloa crus-galli; settings: for Plant response rating, Barnyardgrass: 0 to 100 scale where 0 is no effect and 100 is complete control; for Barnyardgrass plant response rating: 0 to 100 scale
# Outline: as §1
# [13] = Postemergence, 500 g ai/ha, 0 is no effect, 100 is complete control
# [14] = Preemergence, 125 g ai/ha, 0 no effect, 100 complete control
# [15] = Preemergence, 500 g ai/ha, 0 no effect, 100 complete control
# [16] = 62 g ai/ha, scale 0 to 100 (0 no effect, 100 complete control)
# [17] = 250 g ai/ha, scale 0 to 100, 0 no effect, 100 complete control, 13 to 15 days
# [18] = 31 g ai/ha, scale 0 to 100 (0 no effect, 100 complete control)
# [19] = 125 g ai/ha, scale 0 to 100, 0 no effect, 100 complete control, 13 to 15 days
smiles,measurement,setting,value
Cn1nc(C(F)(F)C(F)(F)F)c(CS(=O)(=O)c2ccc(Cl)c[n+]2[O-])c1OCC(F)(F)F [Compound 100],"Plant response rating, Morningglory","[1]; Postemergence, 125 g ai/ha",0
same,Morningglory plant response rating,[1]; [13],20
same,Morningglory plant response rating,[1]; [14],0
same,Morningglory plant response rating,[1]; [15],10
same,"Plant response rating, Rice",[2]; [16],0
same,"Plant response rating, Rice",[2]; [17],0
same,"Plant response rating, Velvetleaf","[3]; Postemergence, 125 g ai/ha",0
same,Velvetleaf plant response rating,[3]; [13],20
same,Velvetleaf plant response rating,[3]; [14],0
same,Velvetleaf plant response rating,[3]; [15],50
same,"Plant response rating, Barnyardgrass",[4]; [16],0
same,"Plant response rating, Barnyardgrass",[4]; [17],0
same,"Plant response rating, Ducksalad",[5]; [16],0
same,"Plant response rating, Ducksalad",[5]; [17],30
same,"Plant response rating, Pigweed","[6]; Postemergence, 125 g ai/ha",0
same,Pigweed plant response rating,[6]; [13],60
same,Pigweed plant response rating,[6]; [14],60
same,Pigweed plant response rating,[6]; [15],80
same,"Plant response rating, Corn","[7]; Postemergence, 125 g ai/ha",0
same,Corn plant response rating,[7]; [13],0
same,Corn plant response rating,[7]; [14],0
same,Corn plant response rating,[7]; [15],0
same,"Plant response rating, Wheat","[8]; Postemergence, 125 g ai/ha",0
same,Wheat plant response rating,[8]; [13],0
same,Wheat plant response rating,[8]; [14],0
same,Wheat plant response rating,[8]; [15],10
same,"Plant response rating, Sedge, Umbrella",[9]; [16],0
same,"Plant response rating, Sedge, Umbrella",[9]; [17],0
same,"Plant response rating, Crabgrass, Large","[10]; Postemergence, 125 g ai/ha",40
same,"Crabgrass, Large plant response rating",[10]; [13],80
same,"Crabgrass, Large plant response rating",[10]; [14],40
same,"Crabgrass, Large plant response rating",[10]; [15],80
same,"Plant response rating, Foxtail, Giant","[11]; Postemergence, 125 g ai/ha",50
same,"Foxtail, Giant plant response rating",[11]; [13],90
same,"Foxtail, Giant plant response rating",[11]; [14],60
same,"Foxtail, Giant plant response rating",[11]; [15],90
same,"Plant response rating, Barnyardgrass","[12]; Postemergence, 125 g ai/ha",40
same,Barnyardgrass plant response rating,[12]; [13],60
same,Barnyardgrass plant response rating,[12]; [14],0
same,Barnyardgrass plant response rating,[12]; [15],90
CC(C)c1cc[n+]([O-])c([S+]([O-])Cc2c(C(F)(F)F)nn(C)c2OCC(F)(F)F)c1 (centres unmarked) [Compound 104],"Plant response rating, Morningglory","[1]; Postemergence, 125 g ai/ha",30
same,Morningglory plant response rating,[1]; [13],100
same,Morningglory plant response rating,[1]; [14],50
same,Morningglory plant response rating,[1]; [15],100
same,"Plant response rating, Rice",[2]; [16],10
same,"Plant response rating, Rice",[2]; [17],15
same,"Plant response rating, Velvetleaf","[3]; Postemergence, 125 g ai/ha",50
same,Velvetleaf plant response rating,[3]; [13],70
same,Velvetleaf plant response rating,[3]; [14],40
same,Velvetleaf plant response rating,[3]; [15],80
same,"Plant response rating, Barnyardgrass",[4]; [16],0
same,"Plant response rating, Barnyardgrass",[4]; [17],20
same,"Plant response rating, Ducksalad",[5]; [16],30
same,"Plant response rating, Ducksalad",[5]; [17],80
same,"Plant response rating, Pigweed","[6]; Postemergence, 125 g ai/ha",50
same,Pigweed plant response rating,[6]; [13],90
same,Pigweed plant response rating,[6]; [14],90
same,Pigweed plant response rating,[6]; [15],100
same,"Plant response rating, Corn","[7]; Postemergence, 125 g ai/ha",50
same,Corn plant response rating,[7]; [13],70
same,Corn plant response rating,[7]; [14],40
same,Corn plant response rating,[7]; [15],70
same,"Plant response rating, Wheat","[8]; Postemergence, 125 g ai/ha",50
same,Wheat plant response rating,[8]; [13],60
same,Wheat plant response rating,[8]; [14],50
same,Wheat plant response rating,[8]; [15],100
same,"Plant response rating, Sedge, Umbrella",[9]; [16],0
same,"Plant response rating, Sedge, Umbrella",[9]; [17],80
same,"Plant response rating, Crabgrass, Large","[10]; Postemergence, 125 g ai/ha",40
same,"Crabgrass, Large plant response rating",[10]; [13],90
same,"Crabgrass, Large plant response rating",[10]; [14],80
same,"Crabgrass, Large plant response rating",[10]; [15],100
same,"Plant response rating, Foxtail, Giant","[11]; Postemergence, 125 g ai/ha",80
same,"Foxtail, Giant plant response rating",[11]; [13],90
same,"Foxtail, Giant plant response rating",[11]; [14],90
same,"Foxtail, Giant plant response rating",[11]; [15],100
same,"Plant response rating, Barnyardgrass","[12]; Postemergence, 125 g ai/ha",50
same,Barnyardgrass plant response rating,[12]; [13],90
same,Barnyardgrass plant response rating,[12]; [14],40
same,Barnyardgrass plant response rating,[12]; [15],100
CCOc1ccc(S(=O)(=O)Cc2c(C(F)(F)F)nn(C)c2OC(F)F)[n+]([O-])c1 [Compound 105],"Plant response rating, Morningglory","[1]; Postemergence, 125 g ai/ha",0
same,Morningglory plant response rating,[1]; [13],30
same,Morningglory plant response rating,[1]; [14],10
same,Morningglory plant response rating,[1]; [15],40
same,"Plant response rating, Rice",[2]; [18],0
same,"Plant response rating, Rice",[2]; [16],0
same,"Plant response rating, Rice",[2]; [19],0
same,"Plant response rating, Rice",[2]; [17],0
same,"Plant response rating, Velvetleaf","[3]; Postemergence, 125 g ai/ha",0
same,Velvetleaf plant response rating,[3]; [13],0
same,Velvetleaf plant response rating,[3]; [14],0
same,Velvetleaf plant response rating,[3]; [15],0
same,"Plant response rating, Barnyardgrass",[4]; [18],0
same,"Plant response rating, Barnyardgrass",[4]; [16],0
same,"Plant response rating, Barnyardgrass",[4]; [19],0
same,"Plant response rating, Barnyardgrass",[4]; [17],0
same,"Plant response rating, Ducksalad",[5]; [18],0
same,"Plant response rating, Ducksalad",[5]; [16],0
same,"Plant response rating, Ducksalad",[5]; [19],0
same,"Plant response rating, Ducksalad",[5]; [17],0
same,"Plant response rating, Pigweed","[6]; Postemergence, 125 g ai/ha",0
same,Pigweed plant response rating,[6]; [13],0
same,Pigweed plant response rating,[6]; [14],0
same,Pigweed plant response rating,[6]; [15],0
same,"Plant response rating, Corn","[7]; Postemergence, 125 g ai/ha",0
same,Corn plant response rating,[7]; [13],0
same,Corn plant response rating,[7]; [14],0
same,Corn plant response rating,[7]; [15],0
same,"Plant response rating, Wheat","[8]; Postemergence, 125 g ai/ha",0
same,Wheat plant response rating,[8]; [13],0
same,Wheat plant response rating,[8]; [14],0
same,Wheat plant response rating,[8]; [15],0
same,"Plant response rating, Sedge, Umbrella",[9]; [18],0
same,"Plant response rating, Sedge, Umbrella",[9]; [16],0
same,"Plant response rating, Sedge, Umbrella",[9]; [19],0
same,"Plant response rating, Sedge, Umbrella",[9]; [17],0
same,"Plant response rating, Crabgrass, Large","[10]; Postemergence, 125 g ai/ha",10
same,"Crabgrass, Large plant response rating",[10]; [13],70
same,"Crabgrass, Large plant response rating",[10]; [14],40
same,"Crabgrass, Large plant response rating",[10]; [15],70
same,"Plant response rating, Foxtail, Giant","[11]; Postemergence, 125 g ai/ha",10
same,"Foxtail, Giant plant response rating",[11]; [13],60
same,"Foxtail, Giant plant response rating",[11]; [14],40
same,"Foxtail, Giant plant response rating",[11]; [15],50
same,"Plant response rating, Barnyardgrass","[12]; Postemergence, 125 g ai/ha",10
same,Barnyardgrass plant response rating,[12]; [13],60
same,Barnyardgrass plant response rating,[12]; [14],10
same,Barnyardgrass plant response rating,[12]; [15],30
